Test results taken from ChEMBL document CHEMBL4382213, “Identification and characterization of agnuside, a natural proangiogenic small molecule” (Eur J Med Chem, 2018).
Values after ≈ are worked out from the molar mass of the structure shown. Active and inactive are the calls of the source. The calls are words filed in the database; no cut-off is given here.

How the values were obtained:
HUVEC [1] = assay: Pro-angiogenic activity in HUVEC assessed as increase in cell proliferation at 2500 ng/ml after 96 hrs by DAPI staining-based spectrofluorometric analysis relative to control; assay type: functional, Homo sapiens
HUVEC [2] = assay: Pro-angiogenic activity in HUVEC assessed as increase in cell proliferation after 96 hrs by DAPI staining-based spectrofluorometric analysis; assay type: functional; conditions: Homo sapiens
HUVEC [3] = assay: Pro-angiogenic activity in HUVEC assessed as increase in cell proliferation at 2500 ng/ml after 24 to 72 hrs by DAPI staining-based spectrofluorometric analysis relative to control; assay type: functional, Homo sapiens
HUVEC [4] = assay: […] activity in HUVEC assessed as wound closure at 100 ng/ml after 24 hrs by phase-contrast microscopic analysis; assay type: functional, cell-based; conditions: Homo sapiens
HUVEC [5] = assay: Pro-angiogenic activity in HUVEC assessed as increase in meshes formation at 0.1 to 10 ng/ml after 22 hrs by phase-contrast image analysis; assay type: functional, cell-based; conditions: Homo sapiens
HUVEC [6] = assay: Pro-angiogenic activity in HUVEC assessed as increase in meshes formation after 22 hrs by phase-contrast image analysis; assay type: functional, cell-based; conditions: Homo sapiens
HUVEC [7] = assay: Pro-angiogenic activity in HUVEC assessed as increase in tubular network formation at 0.1 ng/ml preincubated for 30 mins followed by ZM 323881 HCl addition and measured after 22 hrs by phase-contrast image analysis; assay type: functional, cell-based; conditions: Homo sapiens
HUVEC [8] = assay: Effect on cell morphology in HUVEC at 1 to 2500 ng/ml after 24 to 96 hrs by DAPI staining-based spectrofluorometric analysis; assay type: functional; conditions: Homo sapiens
HUVEC [9] = assay: Pro-angiogenic activity in HUVEC assessed as increase in tubular network formation at 0.1 ng/ml after 22 hrs by phase-contrast image analysis; assay type: functional, cell-based; conditions: Homo sapiens

With `O=C(OCC1=C[C@@H](O)[C@@H]2C=CO[C@@H](O[C@@H]3O[C@H](CO)[C@@H](O)[C@H](O)[C@H]3O)[C@H]12)c1ccc(O)cc1` [AGNUSIDE] the Activity (HUVEC [1]) was “<=56%”, the EC50 (HUVEC [2]) was 1.38 µg/mL (≈ 2.95 µM) and the Activity (HUVEC [3]) was 20 - 30%. The Activity (HUVEC [4]) was “Active”, the Activity (HUVEC [5]) was “inactive” and the Activity (HUVEC [6]) was “Dose-dependent effect”. The Activity (HUVEC [7]) was “Active”, the Activity (HUVEC [8]) was “inactive” and the Activity (HUVEC [9]) was “Active”.
